Results: publication PMC5791972 (PLoS ONE, 2018)
Read-outs that look alike come from different tables or passages of the source.

Columns and labels:
hTRPV3 = target: T1, hTRPV3 (Homo sapiens, UniProt Q8NET8); experiment: Ion channel selectivity patch clamp; type: cell-based
T1 construct: The cDNAs for various full-length ion channels were subcloned into pcDNA5/TO; expressed in transfected cells; host or cells: T-REx-293 (general cell paragraph)

hTRPA1 = target: T2, hTRPA1 (Homo sapiens, UniProt O75762); experiment: Ion channel selectivity patch clamp; type: cell-based
T2 construct: The cDNAs for various full-length ion channels were subcloned into pcDNA5/TO; expressed in transfected cells; host or cells: T-REx-293 (general cell paragraph)

CB1 (h) = target: T3, CB1 (h) (Homo sapiens, UniProt P21554); type: binding; conditions: 1.0E-06 M
T3 construct: host or cells: CHO cells
T3 sequence (P21554 whole entry): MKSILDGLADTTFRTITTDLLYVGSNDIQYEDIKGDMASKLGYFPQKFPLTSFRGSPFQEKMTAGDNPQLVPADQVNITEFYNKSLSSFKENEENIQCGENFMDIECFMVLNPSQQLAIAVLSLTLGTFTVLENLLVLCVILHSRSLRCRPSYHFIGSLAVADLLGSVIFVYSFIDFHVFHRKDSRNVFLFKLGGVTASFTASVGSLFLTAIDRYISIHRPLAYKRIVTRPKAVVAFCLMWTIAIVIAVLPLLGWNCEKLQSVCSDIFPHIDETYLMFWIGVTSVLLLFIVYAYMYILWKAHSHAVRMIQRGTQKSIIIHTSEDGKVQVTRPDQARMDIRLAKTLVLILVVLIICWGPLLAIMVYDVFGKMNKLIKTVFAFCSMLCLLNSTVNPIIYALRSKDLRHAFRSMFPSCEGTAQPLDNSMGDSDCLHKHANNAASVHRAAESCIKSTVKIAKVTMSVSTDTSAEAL

D4.4 (h) = target: T4, D4.4 (h) (Homo sapiens, UniProt P21917); experiment: biochemical; type: binding; conditions: 1.0E-06 M
T4 sequence (P21917 1-419): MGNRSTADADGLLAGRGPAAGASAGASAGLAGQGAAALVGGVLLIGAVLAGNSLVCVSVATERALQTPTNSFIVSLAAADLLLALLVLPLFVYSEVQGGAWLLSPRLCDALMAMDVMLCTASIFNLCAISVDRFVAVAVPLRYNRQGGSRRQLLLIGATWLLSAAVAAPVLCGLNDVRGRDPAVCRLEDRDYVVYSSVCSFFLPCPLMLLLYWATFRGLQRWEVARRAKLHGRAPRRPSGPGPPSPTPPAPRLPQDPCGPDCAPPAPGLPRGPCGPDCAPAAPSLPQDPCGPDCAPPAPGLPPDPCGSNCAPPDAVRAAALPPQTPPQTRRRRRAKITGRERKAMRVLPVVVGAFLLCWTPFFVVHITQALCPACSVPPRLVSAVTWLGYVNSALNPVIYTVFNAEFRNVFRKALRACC

GABAA1 (h) (α1,β2,γ2) = target: T5, GABAA1 (h) (α1,β2,γ2) (Homo sapiens, UniProt P14867+P47870); type: binding; conditions: 1.0E-06 M
T5 construct: host or cells: CHO cells
T5 sequence (P14867 28-456): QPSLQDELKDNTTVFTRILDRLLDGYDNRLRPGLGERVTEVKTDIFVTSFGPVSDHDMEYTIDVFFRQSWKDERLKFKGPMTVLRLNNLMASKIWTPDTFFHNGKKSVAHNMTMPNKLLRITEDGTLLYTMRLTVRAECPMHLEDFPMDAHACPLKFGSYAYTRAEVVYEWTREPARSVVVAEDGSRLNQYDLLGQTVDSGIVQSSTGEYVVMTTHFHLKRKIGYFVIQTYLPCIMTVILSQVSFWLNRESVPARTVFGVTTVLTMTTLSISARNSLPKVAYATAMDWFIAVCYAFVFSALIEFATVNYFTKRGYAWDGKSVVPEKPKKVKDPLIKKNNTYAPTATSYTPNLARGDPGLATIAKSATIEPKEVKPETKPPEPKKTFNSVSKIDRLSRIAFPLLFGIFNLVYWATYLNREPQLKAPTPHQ
T5 sequence (P47870 25-512 limits assumed): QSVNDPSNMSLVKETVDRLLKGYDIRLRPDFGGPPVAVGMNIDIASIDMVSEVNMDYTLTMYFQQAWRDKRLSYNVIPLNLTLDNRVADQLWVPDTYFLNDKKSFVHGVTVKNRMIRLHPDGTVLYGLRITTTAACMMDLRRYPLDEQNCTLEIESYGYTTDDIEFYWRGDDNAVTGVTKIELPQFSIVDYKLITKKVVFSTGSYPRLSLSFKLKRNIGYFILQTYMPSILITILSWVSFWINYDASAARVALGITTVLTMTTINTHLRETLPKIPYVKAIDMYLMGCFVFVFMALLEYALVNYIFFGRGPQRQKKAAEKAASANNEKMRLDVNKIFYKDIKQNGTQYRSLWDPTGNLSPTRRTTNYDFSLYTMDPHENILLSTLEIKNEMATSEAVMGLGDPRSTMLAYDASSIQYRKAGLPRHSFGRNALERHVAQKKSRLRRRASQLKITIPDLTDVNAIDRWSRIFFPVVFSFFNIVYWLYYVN
T5 sequence (P18507 40-475 partner): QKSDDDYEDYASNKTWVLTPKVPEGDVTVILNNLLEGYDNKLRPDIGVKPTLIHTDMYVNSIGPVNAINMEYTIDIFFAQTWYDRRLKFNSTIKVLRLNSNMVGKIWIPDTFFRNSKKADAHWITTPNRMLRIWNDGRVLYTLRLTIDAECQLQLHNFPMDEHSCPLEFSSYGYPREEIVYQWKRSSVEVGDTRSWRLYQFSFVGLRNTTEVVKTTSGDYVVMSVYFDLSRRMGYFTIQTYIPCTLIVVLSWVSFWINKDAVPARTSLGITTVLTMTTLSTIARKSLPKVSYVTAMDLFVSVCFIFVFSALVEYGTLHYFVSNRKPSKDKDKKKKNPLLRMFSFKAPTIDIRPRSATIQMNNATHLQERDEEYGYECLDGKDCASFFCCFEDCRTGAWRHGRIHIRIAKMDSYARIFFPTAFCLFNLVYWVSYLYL

MT3 (ML2) = target: T6, MT3 (ML2) (Mesocricetus auratus, UniProt A0ABM2YAB8); type: binding, hamster
T6 construct: tissue Cerep; host or cells: hamster brain
T6 sequence (A0ABM2YAB8 1-231): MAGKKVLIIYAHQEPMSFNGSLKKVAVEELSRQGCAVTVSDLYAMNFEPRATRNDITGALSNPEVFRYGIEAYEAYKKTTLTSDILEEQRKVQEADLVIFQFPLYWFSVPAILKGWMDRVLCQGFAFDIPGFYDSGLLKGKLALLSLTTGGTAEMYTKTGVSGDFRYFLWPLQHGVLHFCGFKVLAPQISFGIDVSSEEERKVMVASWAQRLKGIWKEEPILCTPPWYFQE

MAO-A = target: T7, MAO-A (Rattus norvegicus, UniProt P21396); type: binding; conditions: 1 h, 1.0E-06 M
T7 construct: tissue Cerep; host or cells: rat cerebral cortex
T7 sequence (P21396 1-526): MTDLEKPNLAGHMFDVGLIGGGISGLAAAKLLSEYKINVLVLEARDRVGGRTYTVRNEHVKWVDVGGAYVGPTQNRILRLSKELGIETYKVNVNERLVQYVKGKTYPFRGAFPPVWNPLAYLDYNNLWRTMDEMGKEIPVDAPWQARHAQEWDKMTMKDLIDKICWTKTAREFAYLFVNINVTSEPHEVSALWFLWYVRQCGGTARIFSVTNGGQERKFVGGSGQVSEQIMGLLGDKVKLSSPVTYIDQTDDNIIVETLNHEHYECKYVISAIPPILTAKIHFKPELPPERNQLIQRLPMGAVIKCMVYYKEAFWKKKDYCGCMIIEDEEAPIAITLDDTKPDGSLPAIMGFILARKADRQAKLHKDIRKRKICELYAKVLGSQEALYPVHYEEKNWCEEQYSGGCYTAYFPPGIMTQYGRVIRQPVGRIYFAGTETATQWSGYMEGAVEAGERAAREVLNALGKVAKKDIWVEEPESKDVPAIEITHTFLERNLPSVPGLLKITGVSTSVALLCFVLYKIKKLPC

δ2 (DOP) (h) = target: T8, δ2 (DOP) (h) (Homo sapiens, UniProt P41143); type: binding; conditions: 1.0E-06 M
T8 construct: host or cells: CHO cells
T8 sequence (P41143 whole entry): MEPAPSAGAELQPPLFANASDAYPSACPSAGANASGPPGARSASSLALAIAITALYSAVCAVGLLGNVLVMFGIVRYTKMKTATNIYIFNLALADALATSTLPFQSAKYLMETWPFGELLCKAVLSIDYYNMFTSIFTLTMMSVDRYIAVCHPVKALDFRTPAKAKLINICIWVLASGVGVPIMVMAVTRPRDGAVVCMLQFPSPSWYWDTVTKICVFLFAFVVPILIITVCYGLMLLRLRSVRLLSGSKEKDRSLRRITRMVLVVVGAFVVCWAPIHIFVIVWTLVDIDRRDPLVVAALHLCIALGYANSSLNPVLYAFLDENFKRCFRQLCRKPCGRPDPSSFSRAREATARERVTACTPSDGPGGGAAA

5-HT1A (h) = target: T9, 5-HT1A (h) (Homo sapiens, UniProt P08908); type: binding; conditions: 1.0E-06 M
T9 construct: host or cells: HEK-293 cells
T9 sequence (P08908 1-422): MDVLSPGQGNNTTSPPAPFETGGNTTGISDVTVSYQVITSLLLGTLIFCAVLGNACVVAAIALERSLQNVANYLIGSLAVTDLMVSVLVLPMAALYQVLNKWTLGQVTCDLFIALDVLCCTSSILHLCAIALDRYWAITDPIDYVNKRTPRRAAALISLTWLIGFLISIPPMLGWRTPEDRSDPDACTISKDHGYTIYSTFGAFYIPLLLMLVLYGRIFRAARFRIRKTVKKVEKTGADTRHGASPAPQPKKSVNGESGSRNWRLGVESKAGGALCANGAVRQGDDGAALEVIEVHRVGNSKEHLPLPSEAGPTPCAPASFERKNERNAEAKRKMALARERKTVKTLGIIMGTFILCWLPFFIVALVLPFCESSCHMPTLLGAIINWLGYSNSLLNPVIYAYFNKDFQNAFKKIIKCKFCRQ

5-HT2A (h) = target: T10, 5-HT2A (h) (Homo sapiens, UniProt P28223); type: binding; conditions: 1.0E-06 M
T10 construct: host or cells: HEK-293 cells
T10 sequence (P28223 whole entry): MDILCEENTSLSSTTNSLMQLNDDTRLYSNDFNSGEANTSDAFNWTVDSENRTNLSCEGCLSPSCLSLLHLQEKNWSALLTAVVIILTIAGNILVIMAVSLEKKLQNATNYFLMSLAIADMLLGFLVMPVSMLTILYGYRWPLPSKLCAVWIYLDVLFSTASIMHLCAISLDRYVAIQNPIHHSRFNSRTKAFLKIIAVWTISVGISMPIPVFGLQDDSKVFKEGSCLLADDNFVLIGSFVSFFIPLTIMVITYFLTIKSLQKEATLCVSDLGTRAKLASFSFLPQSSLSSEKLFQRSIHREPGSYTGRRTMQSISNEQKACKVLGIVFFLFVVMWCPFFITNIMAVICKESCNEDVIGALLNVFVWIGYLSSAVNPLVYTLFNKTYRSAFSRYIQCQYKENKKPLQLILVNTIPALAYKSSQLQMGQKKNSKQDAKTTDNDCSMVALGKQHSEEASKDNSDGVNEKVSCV

[1] = target: T11, norepinephrine transporter (h) (Homo sapiens, UniProt P23975); type: binding
T11 construct: host or cells: CHO cells
T11 sequence (P23975 whole entry): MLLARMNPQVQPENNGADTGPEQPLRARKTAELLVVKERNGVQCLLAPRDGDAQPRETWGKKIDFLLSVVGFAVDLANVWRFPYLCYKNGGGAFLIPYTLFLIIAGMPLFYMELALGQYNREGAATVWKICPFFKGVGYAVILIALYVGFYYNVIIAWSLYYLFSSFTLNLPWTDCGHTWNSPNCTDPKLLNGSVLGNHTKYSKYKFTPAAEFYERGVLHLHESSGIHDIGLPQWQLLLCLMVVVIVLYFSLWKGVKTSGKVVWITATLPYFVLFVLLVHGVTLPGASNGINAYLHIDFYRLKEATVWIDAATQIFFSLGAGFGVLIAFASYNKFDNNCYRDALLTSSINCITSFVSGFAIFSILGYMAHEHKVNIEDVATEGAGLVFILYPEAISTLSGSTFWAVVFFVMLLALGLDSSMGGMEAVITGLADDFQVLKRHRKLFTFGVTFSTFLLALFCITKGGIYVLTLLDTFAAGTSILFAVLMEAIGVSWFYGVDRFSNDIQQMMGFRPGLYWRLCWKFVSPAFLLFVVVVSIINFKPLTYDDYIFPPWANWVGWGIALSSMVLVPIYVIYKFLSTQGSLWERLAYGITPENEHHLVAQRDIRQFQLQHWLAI

dopamine transporter (h) = target: T12, dopamine transporter (h) (Homo sapiens, UniProt Q01959); type: binding; conditions: 1.0E-06 M
T12 construct: host or cells: CHO cells
T12 sequence (Q01959 whole entry): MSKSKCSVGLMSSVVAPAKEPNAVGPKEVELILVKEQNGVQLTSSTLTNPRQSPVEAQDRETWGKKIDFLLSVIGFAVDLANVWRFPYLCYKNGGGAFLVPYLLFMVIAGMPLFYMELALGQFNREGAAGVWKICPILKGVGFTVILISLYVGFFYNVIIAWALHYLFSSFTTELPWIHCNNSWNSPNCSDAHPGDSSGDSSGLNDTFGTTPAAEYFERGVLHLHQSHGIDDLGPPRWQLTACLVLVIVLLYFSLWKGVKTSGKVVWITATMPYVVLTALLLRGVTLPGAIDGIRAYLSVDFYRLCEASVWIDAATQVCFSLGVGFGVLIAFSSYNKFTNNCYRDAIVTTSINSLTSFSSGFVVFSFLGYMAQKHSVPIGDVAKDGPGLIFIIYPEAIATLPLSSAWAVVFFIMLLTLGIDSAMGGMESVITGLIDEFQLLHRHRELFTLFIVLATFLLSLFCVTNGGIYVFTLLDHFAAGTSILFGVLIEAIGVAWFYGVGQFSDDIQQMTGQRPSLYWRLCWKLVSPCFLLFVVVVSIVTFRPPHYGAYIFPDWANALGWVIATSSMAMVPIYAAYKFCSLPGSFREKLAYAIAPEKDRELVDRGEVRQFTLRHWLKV

acetylcholinesterase (h) = target: T13, acetylcholinesterase (h) (Homo sapiens, UniProt P22303); experiment: enzyme assay; type: biochemical; conditions: 1.0E-06 M
T13 construct: host or cells: HEK-293 cells
T13 sequence (P22303 32-614): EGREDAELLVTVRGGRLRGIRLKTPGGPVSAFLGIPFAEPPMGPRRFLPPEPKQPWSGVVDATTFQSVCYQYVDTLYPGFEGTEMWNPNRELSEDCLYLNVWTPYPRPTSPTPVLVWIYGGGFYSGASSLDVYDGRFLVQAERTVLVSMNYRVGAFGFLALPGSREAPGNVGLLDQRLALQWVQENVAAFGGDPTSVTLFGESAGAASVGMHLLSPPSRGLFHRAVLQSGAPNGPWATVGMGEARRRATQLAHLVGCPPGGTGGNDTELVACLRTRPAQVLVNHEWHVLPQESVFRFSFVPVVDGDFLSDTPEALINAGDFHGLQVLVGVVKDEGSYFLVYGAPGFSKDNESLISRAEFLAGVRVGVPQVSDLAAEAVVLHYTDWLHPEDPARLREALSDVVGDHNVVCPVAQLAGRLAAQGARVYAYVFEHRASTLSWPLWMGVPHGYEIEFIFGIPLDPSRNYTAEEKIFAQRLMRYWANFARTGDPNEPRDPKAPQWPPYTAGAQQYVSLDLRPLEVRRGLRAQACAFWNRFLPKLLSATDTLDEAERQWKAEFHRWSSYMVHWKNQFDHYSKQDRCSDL

Row | SMILES | inhibition at 1 µM (CB1 (h); read-out: % Inhibition 1st) | inhibition at 1 µM (CB1 (h); read-out: % Inhibition 2nd) | inhibition at 1 µM (CB1 (h); read-out: % Inhibition Mean) | inhibition at 1 µM (D4.4 (h); read-out: % Inhibition 1st) | inhibition at 1 µM (D4.4 (h); read-out: % Inhibition 2nd) | inhibition at 1 µM (D4.4 (h); read-out: % Inhibition Mean) | inhibition at 1 µM (GABAA1 (h) (α1,β2,γ2); read-out: % Inhibition 1st) | inhibition at 1 µM (GABAA1 (h) (α1,β2,γ2); read-out: % Inhibition 2nd) | inhibition at 1 µM (GABAA1 (h) (α1,β2,γ2); read-out: % Inhibition Mean) | inhibition at 1 µM (MT3 (ML2); read-out: % Inhibition 1st) | inhibition at 1 µM (MT3 (ML2); read-out: % Inhibition 2nd) | inhibition at 1 µM (MT3 (ML2); read-out: % Inhibition Mean) | inhibition at 1 µM (MAO-A; read-out: % Inhibition 1st) | inhibition at 1 µM (MAO-A; read-out: % Inhibition 2nd) | inhibition at 1 µM (MAO-A; read-out: % Inhibition Mean) | inhibition at 1 µM (δ2 (DOP) (h); read-out: % Inhibition 1st) | inhibition at 1 µM (δ2 (DOP) (h); read-out: % Inhibition 2nd) | inhibition at 1 µM (δ2 (DOP) (h); read-out: % Inhibition Mean) | inhibition at 1 µM (5-HT1A (h); read-out: % Inhibition 1st) | inhibition at 1 µM (5-HT1A (h); read-out: % Inhibition 2nd) | also measured
1 | Cn1c(=O)n(CCCO)c(=O)c2c1nc(Oc1cccc(Cl)c1)n2Cc1ccc(Cl)cc1 [HC-070] | 8.4% | 18.8% | 13.6% | -15.8% | -1.8% | -8.8% | 27.9% | 16.4% | 22.1% | 46.1% | 49.5% | 47.8% | 12.6% | 13.1% | 12.8% | 6.8% | 5.9% | 6.3% | 8.7% | -24.2% | IC50 (hTRPV3; 30 µM 2-APB, read-out: IC50): > 1900 nM; IC50 (hTRPA1; 2-10 µM AITC, read-out: IC50): > 1900 nM; inhibition at 1 µM (5-HT1A (h); read-out: % Inhibition Mean): -7.7%; inhibition at 1 µM (5-HT2A (h); read-out: % Inhibition 1st): -1.3%; inhibition at 1 µM (5-HT2A (h); read-out: % Inhibition 2nd): 6.1%; inhibition at 1 µM (5-HT2A (h); read-out: % Inhibition Mean): 2.4%; inhibition at 1 µM ([1]; read-out: % Inhibition 1st): -10.1%; inhibition at 1 µM ([1]; read-out: % Inhibition 2nd): -0.6%; inhibition at 1 µM ([1]; read-out: % Inhibition Mean): -5.4%; inhibition at 1 µM (dopamine transporter (h); read-out: % Inhibition 1st): 8.9%; inhibition at 1 µM (dopamine transporter (h); read-out: % Inhibition 2nd): 8.6%; inhibition at 1 µM (dopamine transporter (h); read-out: % Inhibition Mean): 8.8%; inhibition at 1 µM (acetylcholinesterase (h); read-out: % Inhibition 1st): 2.1%; inhibition at 1 µM (acetylcholinesterase (h); read-out: % Inhibition 2nd): -0.7%; inhibition at 1 µM (acetylcholinesterase (h); read-out: % Inhibition Mean): 0.7%
2 | Cn1c(=O)n(CCCO)c(=O)c2c1nc(Oc1cccc(OC(F)(F)F)c1)n2Cc1ccc(Cl)cc1 [HC-608] | 27% | 25.5% | 26.2% | -20.4% | 3.4% | -8.5% | 0.6% | 7.9% | 4.2% | -0.7% | 1.2% | 0.2% | -3.8% | 3.6% | -0.1% | -10.8% | 3.1% | -3.9% | -0.2% | 14.8% | IC50 (hTRPV3): > 1640 nM; IC50 (hTRPA1): > 1640 nM; inhibition at 1 µM (5-HT1A (h); read-out: % Inhibition Mean): 7.3%; inhibition at 1 µM (5-HT2A (h); read-out: % Inhibition 1st): 1.8%; inhibition at 1 µM (5-HT2A (h); read-out: % Inhibition 2nd): -14.3%; inhibition at 1 µM (5-HT2A (h); read-out: % Inhibition Mean): -6.2%; inhibition at 1 µM ([1]; read-out: % Inhibition 1st): 4.8%; inhibition at 1 µM ([1]; read-out: % Inhibition 2nd): 18.1%; inhibition at 1 µM ([1]; read-out: % Inhibition Mean): 11.5%; inhibition at 1 µM (dopamine transporter (h); read-out: % Inhibition 1st): 22.8%; inhibition at 1 µM (dopamine transporter (h); read-out: % Inhibition 2nd): 37.1%; inhibition at 1 µM (dopamine transporter (h); read-out: % Inhibition Mean): 29.9%; inhibition at 1 µM (acetylcholinesterase (h); read-out: % Inhibition 1st): -5.9%; inhibition at 1 µM (acetylcholinesterase (h); read-out: % Inhibition 2nd): -3.5%; inhibition at 1 µM (acetylcholinesterase (h); read-out: % Inhibition Mean): -4.7%
